Assay results taken from patent publication US6737383B1, “Herbicidal oxadiazolidines” (priority 1999, dated 2004).

Experiments:
morningglory = test: Test B pre/postemergence morningglory; type: in vivo, Ipomoea hederacea
Outline: (§1)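 Response is a visual 0-to-10 score relative to untreated plants, where 0 means no effect and 10 means complete control, taken twelve to sixteen days after application. Treatments went onto soil at planting and onto foliage of 1- to 4-leaf plants, using a surfactant-containing non-phytotoxic solvent.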

rape = test: Test B pre/postemergence rape; type: in vivo, Brassica napus
Outline: as §1

cocklebur = test: Test B pre/postemergence cocklebur; type: in vivo, Xanthium strumarium
Outline: as §1

soybean = test: Test B pre/postemergence soybean; type: in vivo, Glycine max
Outline: as §1

surinam grass = test: Test B pre/postemergence surinam grass; type: in vivo, Brachiaria decumbens
Outline: as §1

crabgrass = test: Test B pre/postemergence crabgrass; type: in vivo, Digitaria sanguinalis
Outline: as §1

bedstraw = test: Test B pre/postemergence bedstraw; type: in vivo, Galium aparine
Outline: as §1

pigweed = test: Test B pre/postemergence pigweed; type: in vivo, Amaranthus retroflexus
Outline: as §1

purple nutsedge = test: Test B pre/postemergence purple nutsedge; type: in vivo, Cyperus rotundus
Outline: as §1

giant foxtail = test: Test B pre/postemergence giant foxtail; type: in vivo, Setaria faberii
Outline: as §1

wild oat = test: Test B pre/postemergence wild oat; type: in vivo, Avena fatua
Outline: as §1

velvetleaf = test: Test B pre/postemergence velvetleaf; type: in vivo, Abutilon theophrasti
Outline: as §1

wheat = test: Test B pre/postemergence wheat; type: in vivo, Triticum aestivum
Outline: as §1

blackgrass = test: Test B pre/postemergence blackgrass; type: in vivo, Alopecurus myosuroides
Outline: as §1

corn = test: Test B pre/postemergence corn; type: in vivo, Zea mays
Outline: as §1

[1] = Postemergence, Rate 62 g/ha, scale 0 to 10, 0 is no effect, 10 is complete control
[2] = Postemergence, Rate 250 g/ha, scale 0 to 10, 0 no effect, 10 complete control
[3] = Preemergence, Rate 31 g/ha, visual rating, scale 0 to 10 (0 no effect, 10 complete control)
[4] = Preemergence, Rate 62 g/ha, scale 0 to 10, 0 is no effect, 10 is complete control
[5] = Preemergence, Rate 125 g/ha, scale 0 to 10 (0 no effect, 10 complete control)
[6] = Preemergence, Rate 250 g/ha, scale of 0 to 10 where 0 is no effect and 10 is complete control
[7] = Rate 31 g/ha, Postemergence, scale 0 to 10
[8] = Rate 125 g/ha, Postemergence, scale 0 to 10, 0 no effect, 10 complete control

Question: Which results are given for CCN(C(=O)n1oc(=O)n(-c2c(C)cccc2C)c1=O)C1CCCCC1 [Compound 27]?
Answer: Morningglory plant response rating (morningglory; [1]): 0; Morningglory plant response rating (morningglory; [2]): 0; Morningglory plant response rating (morningglory; [3]): 0; Plant response rating, Morningglory (morningglory; [4]): 0; Plant response rating, Morningglory (morningglory; [5]): 0; Plant response rating, Morningglory (morningglory; [6]): 0; Morningglory plant response rating (morningglory; [7]): 0; Morningglory plant response rating (morningglory; [8]): 0; Rape plant response rating (rape; [1]): 0; Rape plant response rating (rape; [2]): 0; Rape plant response rating (rape; [3]): 0; Plant response rating, Rape (rape; [4]): 0; Plant response rating, Rape (rape; [5]): 0; Plant response rating, Rape (rape; [6]): 0; Rape plant response rating (rape; [7]): 0; Rape plant response rating (rape; [8]): 0; Cocklebur plant response rating (cocklebur; [1]): 0; Cocklebur plant response rating (cocklebur; [2]): 0; Cocklebur plant response rating (cocklebur; [3]): 0; Plant response rating, Cocklebur (cocklebur; [4]): 0; Plant response rating, Cocklebur (cocklebur; [5]): 0; Plant response rating, Cocklebur (cocklebur; [6]): 0; Cocklebur plant response rating (cocklebur; [7]): 0; Cocklebur plant response rating (cocklebur; [8]): 0; Soybean plant response rating (soybean; [1]): 1; Soybean plant response rating (soybean; [2]): 2; Soybean plant response rating (soybean; [3]): 0; Plant response rating, Soybean (soybean; [4]): 0; Plant response rating, Soybean (soybean; [5]): 0; Plant response rating, Soybean (soybean; [6]): 0; Soybean plant response rating (soybean; [8]): 1; B. signalgrass plant response rating (surinam grass; [1]): 0; B. signalgrass plant response rating (surinam grass; [2]): 0; B. signalgrass plant response rating (surinam grass; [3]): 0; Plant response rating, B. signalgrass (surinam grass; [4]): 0; Plant response rating, B. signalgrass (surinam grass; [5]): 0; Plant response rating, B. signalgrass (surinam grass; [6]): 0; B. signalgrass plant response rating (surinam grass; [7]): 0; B. signalgrass plant response rating (surinam grass; [8]): 0; Crabgrass plant response rating (crabgrass; [1]): 0; Crabgrass plant response rating (crabgrass; [2]): 0; Crabgrass plant response rating (crabgrass; [3]): 0; Plant response rating, Crabgrass (crabgrass; [4]): 0; Plant response rating, Crabgrass (crabgrass; [5]): 0; Plant response rating, Crabgrass (crabgrass; [6]): 0; Crabgrass plant response rating (crabgrass; [7]): 0; Crabgrass plant response rating (crabgrass; [8]): 0; Bedstraw plant response rating (bedstraw; [1]): 0; Bedstraw plant response rating (bedstraw; [2]): 0; Bedstraw plant response rating (bedstraw; [3]): 0; Plant response rating, Bedstraw (bedstraw; [4]): 0; Plant response rating, Bedstraw (bedstraw; [5]): 0; Plant response rating, Bedstraw (bedstraw; [6]): 0; Bedstraw plant response rating (bedstraw; [7]): 0; Bedstraw plant response rating (bedstraw; [8]): 0; Redroot pigweed plant response rating (pigweed; [1]): 0; Redroot pigweed plant response rating (pigweed; [2]): 0; Redroot pigweed plant response rating (pigweed; [3]): 0; Plant response rating, Redroot pigweed (pigweed; [4]): 0; Plant response rating, Redroot pigweed (pigweed; [5]): 0; Plant response rating, Redroot pigweed (pigweed; [6]): 0; Redroot pigweed plant response rating (pigweed; [7]): 0; Redroot pigweed plant response rating (pigweed; [8]): 0; Nutsedge plant response rating (purple nutsedge; [1]): 0; Nutsedge plant response rating (purple nutsedge; [2]): 0; Nutsedge plant response rating (purple nutsedge; [3]): 0; Plant response rating, Nutsedge (purple nutsedge; [4]): 0; Plant response rating, Nutsedge (purple nutsedge; [5]): 0; Plant response rating, Nutsedge (purple nutsedge; [6]): 0; Nutsedge plant response rating (purple nutsedge; [7]): 0; Nutsedge plant response rating (purple nutsedge; [8]): 0; Giant foxtail plant response rating (giant foxtail; [1]): 0; Giant foxtail plant response rating (giant foxtail; [2]): 0; Giant foxtail plant response rating (giant foxtail; [3]): 0; Plant response rating, Giant foxtail (giant foxtail; [4]): 0; Plant response rating, Giant foxtail (giant foxtail; [5]): 0; Plant response rating, Giant foxtail (giant foxtail; [6]): 0; Giant foxtail plant response rating (giant foxtail; [7]): 0; Giant foxtail plant response rating (giant foxtail; [8]): 0; Wild oats plant response rating (wild oat; [1]): 0; Wild oats plant response rating (wild oat; [2]): 0; Wild oats plant response rating (wild oat; [3]): 0; Plant response rating, Wild oats (wild oat; [5]): 0; Plant response rating, Wild oats (wild oat; [6]): 0; Wild oats plant response rating (wild oat; [8]): 0; Velvetleaf plant response rating (velvetleaf; [1]): 0; Velvetleaf plant response rating (velvetleaf; [2]): 0; Velvetleaf plant response rating (velvetleaf; [3]): 0; Plant response rating, Velvetleaf (velvetleaf; [4]): 0; Plant response rating, Velvetleaf (velvetleaf; [5]): 0; Plant response rating, Velvetleaf (velvetleaf; [6]): 0; Velvetleaf plant response rating (velvetleaf; [8]): 0; Wheat plant response rating (wheat; [1]): 0; Wheat plant response rating (wheat; [2]): 0; Wheat plant response rating (wheat; [3]): 0; Plant response rating, Wheat (wheat; [4]): 0; Plant response rating, Wheat (wheat; [5]): 0; Plant response rating, Wheat (wheat; [6]): 0; Wheat plant response rating (wheat; [8]): 0; Blackgrass plant response rating (blackgrass; [1]): 0; Blackgrass plant response rating (blackgrass; [2]): 0; Blackgrass plant response rating (blackgrass; [3]): 0; Plant response rating, Blackgrass (blackgrass; [4]): 0; Plant response rating, Blackgrass (blackgrass; [5]): 0; Plant response rating, Blackgrass (blackgrass; [6]): 0; Blackgrass plant response rating (blackgrass; [7]): 0; Blackgrass plant response rating (blackgrass; [8]): 0; Corn plant response rating (corn; [1]): 0; Corn plant response rating (corn; [2]): 0; Corn plant response rating (corn; [3]): 0; Plant response rating, Corn (corn; [4]): 0; Plant response rating, Corn (corn; [5]): 0; Plant response rating, Corn (corn; [6]): 0; Corn plant response rating (corn; [7]): 0; Corn plant response rating (corn; [8]): 0
